In brackets after ≈: the same amount, converted by molar mass.
Columns and labels:
[1] = physchem; settings: for solubility: organic solvent or mixture
Protocol: In order to determine a suitable solvent, the solubility of all three APIs were determined in dimethyl sulfoxide, ethyl acetate, methylene chloride (DCM), benzyl alcohol, and dimethylacetamide (DMA).

[2] = Rheological analysis of hydrogel formulations (CGT, onset temperature, max G′); type: physicochemical; settings: compared to the vehicle
Description: PEG 400 was used as a co-solvent to further enhance solubility of the active in aqueous media and to decrease the gelation temperature to be close to but below body temperature. Rheological properties including critical gelation temperature (CGT), onset temperature, and elastic (G′) and viscous (G″) moduli were used in conjunction with visual and IVR experiments to analyze the impact of different formulation component compositions and concentrations on the suitability of the formulation in an extended-release postsurgical pain management indication. […] The onset temperature refers to the temperature at which the viscous moduli begins to increase in rheometry.

[3] = In vitro release (IVR) at 37° C. in surfactant-containing media; type: physicochemical; settings: cumulative drug release in vitro
Protocol: The formulations that transitioned only to a viscous liquid (and not an opaque depot) also dissolved with the addition of media in in vitro release (IVR) studies. Such formulations were not further characterized for IVR profile. IVR was conducted by placing an aliquot of formulation into a 50 mL conical tube placed in a 37° C. water bath on a shaker. The formulation was left to gel before surfactant-containing media was slowly added as not to disturb any formed depot.

solubility [1] [mg/mL] | SMILES | Solubility in DCM [1] | Impact of drug on gelation properties of the formulation [2] | In vitro release profile (in words) [3]
200 (≈ 693 mM) | CCCCN1CCCCC1C(=O)Nc1c(C)cccc1C (stereo not drawn) [bupivacaine, 1-butyl-N-(2,6-dimethylphenyl)piperidine-2-carboxamide] | solubilized bupivacaine but did not maintain adequate drug solubility when mixed with the polymer system | slight impact on the onset temperatures | 
 | CCN(CC)CC(=O)Nc1c(C)cccc1C [lidocaine, 2-(diethylamino)-N-(2,6-dimethylphenyl)acetamide] |  |  | faster drug release
80 (≈ 292 mM) | CCCN1CCCC[C@H]1C(=O)Nc1c(C)cccc1C [ropivacaine, (2S)—N-(2,6-dimethylphenyl)-1-propylpiperidine-2-carboxamide] |  | slight decrease on the onset temperatures and max G′ values | 

— patent US20240148648A1, “SUSTAINED RELEASE THERMOSETTING GELS COMPRISING ANESTHETIC DRUGS AND THE METHODS OF MAKING THE SAME” (Pacira Therapeutics, Inc., priority 2021, published 2024)
